Assay results reported in patent publication US4390547A, “2,2-Dimethyl-3-(substituted ethyl)cyclopropane carboxylate pesticidal compositions and methods” (priority 1981, dated 1983).
Read-outs that look alike come from different tables or passages of the source.

Test: Light stability test (Test Example 3)
Type: physicochemical
Conditions: glass plate, uv light
Method: Into 2.0 ml of acetone were dissolved 80 mg of each test compound. A 5 μl portion of the solution was taken and spread on a glass plate (Micro Standard Cover Glass, 18 m/m No. 1, 200 pcs, Matsunami Glass Ind., Ltd.) and the acetone was evaporated. The specimen was exposed to ultraviolet light from a fluorescent lamp (Tokyo Shibaura Electric Co., Ltd., FL20BL, glow-type, 100 V, 24.5 W, wavelength=3600 A) which was fixed just above the specimen at a distance of 11 cm at a temperature of 31°-35° C. for a predetermined exposure time. The test liquid was washed away with 1.0 ml of methanol containing 0.04% of dioctyl phthalate as an internal reference and high-speed liquid chromatography was carried out on the washings to determine the residual amount of the test compound.

[1] = exposure time 3.5 hours, ultraviolet light 3600 A, 31°-35° C., [Mixture] = cis/trans 50/50, read-out: Residue (%)
[2] = exposure time 3 days, ultraviolet light 3600 A, 31°-35° C., [Mixture] = cis/trans 50/50, read-out: Residue (%)

Structure (SMILES)	remaining at 3.5 h	remaining at 72 h	remaining at 120 h	remaining at 3.5 h [1]	remaining at 72 h [2]	remaining at 120 h (exposure time 5 days, ultraviolet light 3600 A, 31°-35° C., [Mixture] = cis/trans 50/50, read-out: Residue (%))
CC1(C)[C@H](C(=O)OCc2cccc(Oc3ccccc3)c2)[C@@H]1CC(Cl)(Cl)Cl (relative stereo) [(1) [Cis-isomer], 3-Phenoxybenzyl 2,2-dimethyl-3-(2,2,2-trichloroethyl)cyclopropanecarboxylate]	97%	91%	85%	–	–	–
CC1(C)C(CC(Cl)(Cl)Cl)C1C(=O)OC(C#N)c1cccc(Oc2ccccc2)c1 (stereo not drawn) [(7) [Mixture], 3-Phenoxy-α-cyanobenzyl 2,2-dimethyl-3-(2,2,2-trichloroethyl)cyclopropanecarboxylate]	100%	84%	75%	–	–	–
C#CC(OC(=O)C1C(CC(Cl)(Cl)Cl)C1(C)C)c1cccc(Oc2ccccc2)c1 (stereo not drawn) [(11) [Mixture], 3-Phenoxy-α-ethynylbenzyl 2,2-dimethyl-3-(2,2,2-trichloroethyl)cyclopropanecarboxylate]	100%	71%	65%	–	–	–
CC1(C)C(CC(Cl)(Cl)Cl)C1C(=O)OC(C#N)c1cccc(Oc2ccc(Cl)cc2)c1 (stereo not drawn) [(15) [Mixture], 3-(4-Chlorophenoxy)-α-cyanobenzyl 2,2-dimethyl-3-(2,2,2-trichloroethyl)cyclopropanecarboxylate]	100%	93%	96%	–	–	–
C#CC(OC(=O)C1C(CC(Cl)(Cl)Cl)C1(C)C)c1cccc(Oc2ccc(Cl)cc2)c1 (stereo not drawn) [(21) [Mixture], 3-(4-Chlorophenoxy)-α-ethynylbenzyl 2,2-dimethyl-3-(2,2,2-trichloroethyl)cyclopropanecarboxylate]	100%	78%	56%	–	–	–
CC1(C)C(CC(Cl)(Cl)Cl)C1C(=O)OCc1coc(Cc2ccccc2)c1 (centres unmarked) [(28) [Mixture], 5-Benzyl-3-furylmethyl 2,2-dimethyl-3-(2,2,2-trichloroethyl)cyclopropanecarboxylate]	5%	0%	–	–	–	–
CC1(C)C(CC(Cl)(Cl)Cl)C1C(=O)OC(C#N)c1cccc(OC=C(Cl)Cl)c1 (stereo not drawn) [(34) [Mixture], 3-(2,2-dichlorovinyloxy)-α-cyanobenzyl 2,2-dimethyl-3-(2,2,2-trichloroethyl)cyclopropanecarboxylate]	–	–	–	100%	88%	44%
CC1(C)C(CC(Cl)(Cl)Cl)C1C(=O)OCN1C(=O)C2=C(CCCC2)C1=O (centres unmarked) [(37) [Mixture], 3,4,5,6-Tetrahydrophthalimidomethyl 2,2-dimethyl-3-(2,2,2-trichloroethyl)cyclopropanecarboxylate]	16%	0%	–	–	–	–
C=CCC1=C(C)C(OC(=O)C2C(CC(Cl)(Cl)Cl)C2(C)C)CC1=O (centres unmarked) [(38) [Mixture], Allethronyl 2,2-dimethyl-3-(2,2,2-trichloroethyl)cyclopropanecarboxylate]	21%	0%	–	–	–	–
C=CCC1=C(C)C(OC(=O)C2C(C=C(C)C)C2(C)C)CC1=O (centres unmarked) [Allethrin, allethrin, reference compound]	–	–	–	14%	0%	–
